From ChEMBL document CHEMBL1127702, “A proposed model of bradykinin bound to the rat B2 receptor and its utility for drug design” (J Med Chem, 1994)
Where a SMILES comes first, the peptide text is derived from it. [ ]: non-standard residue; d: D form. Oic = O=C(O)[C@@H]1C[C@@H]2CCCC[C@@H]2N1; Hyp = O=C(O)[C@@H]1C[C@@H](O)CN1; dTic = O=C(O)[C@H]1Cc2ccccc2CN1

Key:
Cavia porcellus = species: Cavia porcellus; experiment: Compound was tested for bradykinin-induced contractions in guinea pig ileum; type: functional; conditions: read-out: pA2 (converted)
B2 bradykinin receptor = target: T1, B2 bradykinin receptor (Cavia porcellus, UniProt O70526); experiment: Binding affinity towards bradykinin receptor B2 using [3H]bradykinin
T1 sequence (O70526 whole entry): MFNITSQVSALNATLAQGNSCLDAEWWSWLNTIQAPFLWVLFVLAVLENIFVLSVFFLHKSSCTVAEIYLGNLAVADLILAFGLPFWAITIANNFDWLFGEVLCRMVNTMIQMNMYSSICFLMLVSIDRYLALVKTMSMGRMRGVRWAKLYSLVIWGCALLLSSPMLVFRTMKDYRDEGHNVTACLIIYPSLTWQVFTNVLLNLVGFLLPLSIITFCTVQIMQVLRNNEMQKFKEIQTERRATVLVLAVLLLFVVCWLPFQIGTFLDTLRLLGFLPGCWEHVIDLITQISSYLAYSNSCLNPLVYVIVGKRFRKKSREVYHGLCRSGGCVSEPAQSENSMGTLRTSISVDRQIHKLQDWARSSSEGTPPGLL

- Ki (B2 bradykinin receptor): 0.11 nM
SMILES: NC(N)=NCCC[C@@H](N)C(=O)N[C@@H](CCCN=C(N)N)C(=O)N1CCC[C@H]1C(=O)N1C[C@H](O)C[C@H]1C(=O)NCC(=O)N[C@@H](Cc1ccccc1)C(=O)N[C@@H](CO)C(=O)N1Cc2ccccc2C[C@@H]1C(=O)N1[C@H](C(=O)N[C@@H](CCCN=C(N)N)C(=O)O)C[C@@H]2CCCC[C@@H]21 (H-[dR]RP[Hyp]GFS[dTic][Oic]R-OH)
- Kb (Cavia porcellus): 1.58 nM
